Experimental data: PubChem BioAssay (NCI)
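Tested at 5 concentrations; 48 h exposure; 96-well plates; endpoints linearly interpolated, else capped at highest concentration. At the GI50, growth is halved. TGI: concentration producing complete growth inhibition.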

Test system: K-562 leukemia
Test: inhibition of tumour cell growth, NCI panel, 48 h

Row | Compound | TGI [µM] | GI50 [µM]
1 | COc1cc(I)c2c3c1OC1C34CCN(C)C(C2)C4=CC(I)C1(OC)OC (stereo not given) | 61.8 | 
2 | Nc1c(C(=O)c2ccc(Cl)cc2)[nH]c(NCc2ccccc2)c1C(=S)Nc1ccccc1 | 4.04 | 
3 | CC(C)(C)c1cc(/C=C(\C#N)C(=O)NCCO)cc(C(C)(C)C)c1O | 86.7 | 
4 | COC(=O)Cc1c([C@H]2[C@H](CC(=O)OC)c3ccccc3N2C(C)=O)[nH]c2ccccc12 | > 100 | 
5 | c1ccc2c3c(c(N4CCOCC4)nc2c1)CCCC3 | > 100 | 
6 | O=C(Nc1ccccc1C(=O)NCCCO)/C(=C/c1ccccc1O)NC(=O)c1ccccc1 | > 100 | 
7 | OC1(c2ccc(Cl)cc2)c2ccc3ccccc3c2C2=N[C@H]3CCCC[C@@H]3N21 (stereo not given in full) | > 100 | 
8 | O=C1NC2OC(CO)C(O)C(O1)C2O (stereo not given) | > 100 | 
9 | NC(=O)c1cc2ccccc2o/c1=N/O | > 100 | 
10 | COc1cc2c(/C=C3/C(=O)Nc4ccccc43)c(Cl)[nH]c2cc1C | 24 | 
11 | COCc1nc2c(OC)cc(-c3nc4ccc(N5CCN(C)CC5)cc4[nH]3)c(OC)c2[nH]1 | > 100 | 
12 | O=C(O)C(CO)NC(=O)n1c2ccccc2c2ccccc21 (stereo not given) | > 100 | 
13 | Brc1ccc2c(-c3csc(-c4c[nH]c5ccc(Br)cc45)n3)c[nH]c2c1 | > 22.2 | 
14 | O=C(Nc1cccc(O)c1)C(=O)C(C(=O)c1ccccc1F)C1OC(=O)c2ccccc21 (stereo not given) | > 100 | 
15 | COc1cc(CN2CCCCC2)cc2cc(C(=O)O)c(=O)oc12 | > 100 | 
16 | O=c1c2ccccc2nc(Nc2cccc(Cl)c2)n1/N=C/C=C/c1ccccc1 | > 100 | 
17 | N#Cc1c(-c2ccc(F)cc2)nc(N/N=C/c2c[nH]c3ccccc23)nc1N1CCOCC1 | 14.2 | 1.79
18 | Cc1nn(-c2cc(Cl)ccc2[N+](=O)[O-])c(C)c1Cl | > 100 | 
19 | Cc1nc(C)c(Cc2ccccc2)o1 | > 100 | 
20 | CC1(C)C=C(S(=O)(=O)c2ccccc2)Oc2ccccc2O1 | > 100 | 

Test system: TK-10 renal
Test: inhibition of tumour cell growth, NCI panel, 48 h

Row | Compound | TGI [µM] | GI50 [µM]
21 | COc1cc(I)c2c3c1OC1C34CCN(C)C(C2)C4=CC(I)C1(OC)OC (stereo not given) | 51.1 | 
22 | Nc1c(C(=O)c2ccc(Cl)cc2)[nH]c(NCc2ccccc2)c1C(=S)Nc1ccccc1 | 4.25 | 
23 | CC(C)(C)c1cc(/C=C(\C#N)C(=O)NCCO)cc(C(C)(C)C)c1O | 60.9 | 
24 | COC(=O)Cc1c([C@H]2[C@H](CC(=O)OC)c3ccccc3N2C(C)=O)[nH]c2ccccc12 | > 100 | 
25 | c1ccc2c3c(c(N4CCOCC4)nc2c1)CCCC3 | > 100 | 
26 | O=C(Nc1ccccc1C(=O)NCCCO)/C(=C/c1ccccc1O)NC(=O)c1ccccc1 | > 100 | 
27 | OC1(c2ccc(Cl)cc2)c2ccc3ccccc3c2C2=N[C@H]3CCCC[C@@H]3N21 (stereo not given in full) | 4.87 | 
28 | O=C1NC2OC(CO)C(O)C(O1)C2O (stereo not given) | > 100 | 
29 | NC(=O)c1cc2ccccc2o/c1=N/O | > 100 | 
30 | COc1cc2c(/C=C3/C(=O)Nc4ccccc43)c(Cl)[nH]c2cc1C | 21.7 | 
31 | COCc1nc2c(OC)cc(-c3nc4ccc(N5CCN(C)CC5)cc4[nH]3)c(OC)c2[nH]1 | > 100 | 
32 | O=C(O)C(CO)NC(=O)n1c2ccccc2c2ccccc21 (stereo not given) | > 100 | 
33 | Brc1ccc2c(-c3csc(-c4c[nH]c5ccc(Br)cc45)n3)c[nH]c2c1 | 15.2 | 
34 | O=C(Nc1cccc(O)c1)C(=O)C(C(=O)c1ccccc1F)C1OC(=O)c2ccccc21 (stereo not given) | > 100 | 
35 | COc1cc(CN2CCCCC2)cc2cc(C(=O)O)c(=O)oc12 | > 100 | 
36 | O=c1c2ccccc2nc(Nc2cccc(Cl)c2)n1/N=C/C=C/c1ccccc1 | > 100 | 
37 | N#Cc1c(-c2ccc(F)cc2)nc(N/N=C/c2c[nH]c3ccccc23)nc1N1CCOCC1 | 61 | 15.5
38 | Cc1nn(-c2cc(Cl)ccc2[N+](=O)[O-])c(C)c1Cl | > 100 | 
39 | Cc1nc(C)c(Cc2ccccc2)o1 | > 100 | 
40 | CC1(C)C=C(S(=O)(=O)c2ccccc2)Oc2ccccc2O1 | 36 | 

Test system: HL-60(TB) leukemia
Test: inhibition of tumour cell growth, NCI panel, 48 h

Row | Compound | TGI [µM] | GI50 [µM]
41 | COc1cc(I)c2c3c1OC1C34CCN(C)C(C2)C4=CC(I)C1(OC)OC (stereo not given) | 47.3 | 
42 | Nc1c(C(=O)c2ccc(Cl)cc2)[nH]c(NCc2ccccc2)c1C(=S)Nc1ccccc1 | 14 | 
43 | CC(C)(C)c1cc(/C=C(\C#N)C(=O)NCCO)cc(C(C)(C)C)c1O | 36.9 | 
44 | COC(=O)Cc1c([C@H]2[C@H](CC(=O)OC)c3ccccc3N2C(C)=O)[nH]c2ccccc12 | > 100 | 
45 | c1ccc2c3c(c(N4CCOCC4)nc2c1)CCCC3 | 69.3 | 
46 | O=C(Nc1ccccc1C(=O)NCCCO)/C(=C/c1ccccc1O)NC(=O)c1ccccc1 | > 100 | 
47 | OC1(c2ccc(Cl)cc2)c2ccc3ccccc3c2C2=N[C@H]3CCCC[C@@H]3N21 (stereo not given in full) | > 100 | 
48 | O=C1NC2OC(CO)C(O)C(O1)C2O (stereo not given) | > 100 | 
49 | NC(=O)c1cc2ccccc2o/c1=N/O | > 100 | 
50 | COc1cc2c(/C=C3/C(=O)Nc4ccccc43)c(Cl)[nH]c2cc1C | 3.34 | 
51 | COCc1nc2c(OC)cc(-c3nc4ccc(N5CCN(C)CC5)cc4[nH]3)c(OC)c2[nH]1 | > 100 | 
52 | O=C(O)C(CO)NC(=O)n1c2ccccc2c2ccccc21 (stereo not given) | > 100 | 
53 | Brc1ccc2c(-c3csc(-c4c[nH]c5ccc(Br)cc45)n3)c[nH]c2c1 | 19.7 | 
54 | O=C(Nc1cccc(O)c1)C(=O)C(C(=O)c1ccccc1F)C1OC(=O)c2ccccc21 (stereo not given) | 87.7 | 
55 | COc1cc(CN2CCCCC2)cc2cc(C(=O)O)c(=O)oc12 | > 100 | 
56 | O=c1c2ccccc2nc(Nc2cccc(Cl)c2)n1/N=C/C=C/c1ccccc1 | > 100 | 
57 | N#Cc1c(-c2ccc(F)cc2)nc(N/N=C/c2c[nH]c3ccccc23)nc1N1CCOCC1 | 7.57 | 0.563
58 | Cc1nn(-c2cc(Cl)ccc2[N+](=O)[O-])c(C)c1Cl | > 100 | 
59 | Cc1nc(C)c(Cc2ccccc2)o1 | > 100 | 
60 | CC1(C)C=C(S(=O)(=O)c2ccccc2)Oc2ccccc2O1 | 46.2 | 

Test system: SNB-19 CNS
Test: inhibition of tumour cell growth, NCI panel, 48 h

Row | Compound | TGI [µM] | GI50 [µM]
61 | COc1cc(I)c2c3c1OC1C34CCN(C)C(C2)C4=CC(I)C1(OC)OC (stereo not given) | 71.9 | 
62 | Nc1c(C(=O)c2ccc(Cl)cc2)[nH]c(NCc2ccccc2)c1C(=S)Nc1ccccc1 | 15.1 | 
63 | CC(C)(C)c1cc(/C=C(\C#N)C(=O)NCCO)cc(C(C)(C)C)c1O | > 100 | 
64 | COC(=O)Cc1c([C@H]2[C@H](CC(=O)OC)c3ccccc3N2C(C)=O)[nH]c2ccccc12 | > 100 | 
65 | c1ccc2c3c(c(N4CCOCC4)nc2c1)CCCC3 | > 100 | 
66 | O=C(Nc1ccccc1C(=O)NCCCO)/C(=C/c1ccccc1O)NC(=O)c1ccccc1 | 40.8 | 
67 | OC1(c2ccc(Cl)cc2)c2ccc3ccccc3c2C2=N[C@H]3CCCC[C@@H]3N21 (stereo not given in full) | > 100 | 
68 | O=C1NC2OC(CO)C(O)C(O1)C2O (stereo not given) | > 100 | 
69 | NC(=O)c1cc2ccccc2o/c1=N/O | > 100 | 
70 | COc1cc2c(/C=C3/C(=O)Nc4ccccc43)c(Cl)[nH]c2cc1C | 17.5 | 
71 | COCc1nc2c(OC)cc(-c3nc4ccc(N5CCN(C)CC5)cc4[nH]3)c(OC)c2[nH]1 | > 100 | 
72 | O=C(O)C(CO)NC(=O)n1c2ccccc2c2ccccc21 (stereo not given) | > 100 | 
73 | Brc1ccc2c(-c3csc(-c4c[nH]c5ccc(Br)cc45)n3)c[nH]c2c1 | 14.7 | 
74 | O=C(Nc1cccc(O)c1)C(=O)C(C(=O)c1ccccc1F)C1OC(=O)c2ccccc21 (stereo not given) | 68 | 
75 | COc1cc(CN2CCCCC2)cc2cc(C(=O)O)c(=O)oc12 | > 100 | 
76 | O=c1c2ccccc2nc(Nc2cccc(Cl)c2)n1/N=C/C=C/c1ccccc1 | > 100 | 
77 | N#Cc1c(-c2ccc(F)cc2)nc(N/N=C/c2c[nH]c3ccccc23)nc1N1CCOCC1 | > 100 | 21
78 | Cc1nn(-c2cc(Cl)ccc2[N+](=O)[O-])c(C)c1Cl | > 100 | 
79 | Cc1nc(C)c(Cc2ccccc2)o1 | > 100 | 
80 | CC1(C)C=C(S(=O)(=O)c2ccccc2)Oc2ccccc2O1 | > 100 | 

Test system: SF-539 CNS
Test: inhibition of tumour cell growth, NCI panel, 48 h

Row | Compound | TGI [µM] | GI50 [µM]
81 | COc1cc(I)c2c3c1OC1C34CCN(C)C(C2)C4=CC(I)C1(OC)OC (stereo not given) | 40.1 | 
82 | Nc1c(C(=O)c2ccc(Cl)cc2)[nH]c(NCc2ccccc2)c1C(=S)Nc1ccccc1 | 13.8 | 
83 | CC(C)(C)c1cc(/C=C(\C#N)C(=O)NCCO)cc(C(C)(C)C)c1O | 38.3 | 
84 | COC(=O)Cc1c([C@H]2[C@H](CC(=O)OC)c3ccccc3N2C(C)=O)[nH]c2ccccc12 | > 100 | 
85 | c1ccc2c3c(c(N4CCOCC4)nc2c1)CCCC3 | 61.4 | 
86 | O=C(Nc1ccccc1C(=O)NCCCO)/C(=C/c1ccccc1O)NC(=O)c1ccccc1 | > 63.2 | 
87 | OC1(c2ccc(Cl)cc2)c2ccc3ccccc3c2C2=N[C@H]3CCCC[C@@H]3N21 (stereo not given in full) | 43.7 | 
88 | O=C1NC2OC(CO)C(O)C(O1)C2O (stereo not given) | > 100 | 
89 | NC(=O)c1cc2ccccc2o/c1=N/O | > 100 | 
90 | COc1cc2c(/C=C3/C(=O)Nc4ccccc43)c(Cl)[nH]c2cc1C | 0.225 | 
91 | COCc1nc2c(OC)cc(-c3nc4ccc(N5CCN(C)CC5)cc4[nH]3)c(OC)c2[nH]1 | 44.6 | 
92 | O=C(O)C(CO)NC(=O)n1c2ccccc2c2ccccc21 (stereo not given) | > 100 | 
93 | Brc1ccc2c(-c3csc(-c4c[nH]c5ccc(Br)cc45)n3)c[nH]c2c1 | 15.1 | 
94 | O=C(Nc1cccc(O)c1)C(=O)C(C(=O)c1ccccc1F)C1OC(=O)c2ccccc21 (stereo not given) | 40.2 | 
95 | COc1cc(CN2CCCCC2)cc2cc(C(=O)O)c(=O)oc12 | > 100 | 
96 | O=c1c2ccccc2nc(Nc2cccc(Cl)c2)n1/N=C/C=C/c1ccccc1 | > 100 | 
97 | N#Cc1c(-c2ccc(F)cc2)nc(N/N=C/c2c[nH]c3ccccc23)nc1N1CCOCC1 | 23 | 3.68
98 | Cc1nn(-c2cc(Cl)ccc2[N+](=O)[O-])c(C)c1Cl | > 100 | 
99 | Cc1nc(C)c(Cc2ccccc2)o1 | > 100 | 
100 | CC1(C)C=C(S(=O)(=O)c2ccccc2)Oc2ccccc2O1 | > 100 | 
